Measured values from publication PMC6661812, “Synthesis, biological activity and molecular docking of new tricyclic series as α-glucosidase inhibitors” (BMC Chemistry, 2019).
pIC50: −log10 of the molar value.

How the values were obtained:
[1] = target: α-glucosidase enzyme type 1 from Baker’s yeast (Saccharomyces cerevisiae, UniProt P53341); assay: α-Glucosidase inhibitory assay (p-NPG substrate, absorbance at 405 nm); format: biochemical; conditions: for inhibition at 100 µg/mL: 100 µg/mL of each compound, test repeated three times, read-out: average percent inhibition of α-glucosidase; for pIC50: mean of three experiments ± SEM, more than five concentrations
α-glucosidase enzyme type 1 from Baker’s yeast, sequence (P53341 whole entry): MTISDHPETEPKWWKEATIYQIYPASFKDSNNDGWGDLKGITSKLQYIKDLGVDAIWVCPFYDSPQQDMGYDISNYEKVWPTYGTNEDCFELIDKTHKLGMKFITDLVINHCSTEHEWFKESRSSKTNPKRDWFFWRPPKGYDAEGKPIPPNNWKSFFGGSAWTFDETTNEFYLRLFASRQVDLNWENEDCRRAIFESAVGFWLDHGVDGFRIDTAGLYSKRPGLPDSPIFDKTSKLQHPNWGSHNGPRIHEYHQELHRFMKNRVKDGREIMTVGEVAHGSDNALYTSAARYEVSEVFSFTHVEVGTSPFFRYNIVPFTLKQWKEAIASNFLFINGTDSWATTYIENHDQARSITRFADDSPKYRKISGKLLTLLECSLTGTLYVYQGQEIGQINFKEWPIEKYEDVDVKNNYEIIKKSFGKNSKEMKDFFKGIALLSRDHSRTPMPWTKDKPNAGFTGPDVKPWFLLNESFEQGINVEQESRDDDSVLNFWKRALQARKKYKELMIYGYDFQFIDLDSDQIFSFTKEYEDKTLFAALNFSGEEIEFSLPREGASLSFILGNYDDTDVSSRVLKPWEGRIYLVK
Description: Phosphate-buffered saline pH 6.5 was prepared at 20 °C by dissolving sodium phosphate monobasic (1.4 g), sodium chloride (8 g), potassium chloride (0.2 g) and potassium dihydrogen phosphate (0.2 g) in deionized water (1 L). The solution was adjusted to pH 6.5 at 20 °C with 1 M sodium hydroxide (NaOH) or hydrochloric acid (HCl). A 20-mM solution of para-nitrophenyl-α-D-glucopyranoside (p-NPG substrate) was prepared by dissolving […] of p-NPG in 10 mL of buffer solution. The α-glucosidase enzyme solution was prepared by dissolving α-glucosidase enzyme type 1 from Baker’s yeast (1 mg) in cold phosphate-buffered saline (1000 µL), pH 6.5; 50 µL of this solution was mixed into 12 mL of cold phosphate-buffered saline to give a concentration of 0.125 unit/mL. For the screening of samples, 200 µg/mL concentration was prepared in 100% dimethyl sulfoxide (DMSO). Then, two-fold serial dilutions with 5% DMSO were prepared in a 96-well microplate to give final concentrations of 100, 50, 25, 12.5, 6.25, 3.13 and 1.56 µg/mL. […]
A volume of 10 µL of 5% DMSO was added to the 96 wells of the microplate. Then, 10 µL of the stock sample was added to the first well and mixed. Subsequently, 10 µL of the sample from the first well was taken and added to the second well and this procedure was repeated for the two-fold serial dilutions. Next, 20 µL of the α-glucosidase enzyme, 40 µL of phosphate buffered saline at pH 6.5 and 20 µL of deionized water were added to each well in the 96-well microtiter plate and mixed. The mixture was pre-incubated at 37 °C for 10 min. Then, 10 µL of 20 mM p-NPG solution was added to the mixture and the absorbance at 0 min. was measured at 405 nm. The reaction was incubated for 30 min. at 37 °C and the absorbance was then measured. […] Experiments were performed in triplicate. The inhibition activity of α-glucosidase was determined based on the described method by Ahmad et al.. The percent inhibition (%) of α-glucosidase inhibitory activity was calculated using the equation: %inhibition=A30min-A0mincontrol-A30min-A0minexp/A30min-A0mincontrol×100\%
IC50 values are the mean values of three experiments represented as SEM (n = 3). […] Statistical analysis using one-way ANOVA was applied to the results. Nonlinear regression analysis using a four-parameter logistic curve was performed to calculate the IC50 values. The statistical software used were Microsoft Excel 2010 and Sigma Plot (version 14.0 Notebook, Systat Software Inc.).

## Cc1ccccc1Cn1c(=O)c2cccnc2n2nc(Oc3ccccc3)nc12 [Compound 2d, 4-(2-Methylbenzyl)-2-phenoxypyrido[3,2-e][1,2,4]triazolo[1,5-a]pyrimidin-5(4H)-one]
[1]
  inhibition at 100 µg/mL: > 50%
  pIC50: 3.76
other
  melting point: 160 to 162 °C

## O=C(NNc1nc2nc(Oc3ccccc3)nn2c2ncccc12)c1ccncc1 [Compound 6i, N’-(2-phenoxypyrido[3,2-e][1,2,4]triazolo[1,5-a]pyrimidin-5-yl)isonicotinohydrazide]
other
  melting point: 163 to 165 °C

## Clc1nc2nc(Oc3ccccc3)nn2c2ncccc12 [Compound 5, 5-chloro-2-phenoxypyrido[3,2-e][1,2,4]triazolo[1,5-a]pyrimidine]
other
  melting point: 190 to 192 °C

## O=c1[nH]c2nc(Oc3ccccc3)nn2c2ncccc12 [Compound 1, 2-phenoxypyrido[3,2-e][1,2,4]triazolo[1,5-a]pyrimidin-5(4H)-one]
other
  melting point: 252 to 254 °C

## NNc1nc2nc(Oc3ccccc3)nn2c2ncccc12 [Compound 6f, 5-hydrazinyl-2-phenoxypyrido[3,2-e][1,2,4]triazolo[1,5-a]pyrimidine]
other
  melting point: 241 to 243 °C

## O=c1c2cccnc2n2nc(Oc3ccccc3)nc2n1Cc1ccc(Cl)cc1 [Compound 2i, 4-(4-Chlorobenzyl)-2-phenoxypyrido[3,2-e][1,2,4]triazolo[1,5-a]pyrimidin-5(4H)-one]
other
  melting point: 144 to 146 °C

## COc1ccc(Nc2nc3nc(Oc4ccccc4)nn3c3ncccc23)cc1 [Compound 6c, N-(4-Methoxyphenyl)-2-phenoxypyrido[3,2-e][1,2,4]triazolo[1,5-a]pyrimidin-5-amine]
[1]
  inhibition at 100 µg/mL: > 60%
  pIC50: 3.75
other
  melting point: 174 to 176 °C

## CCn1c(=O)c2cccnc2n2nc(Oc3ccccc3)nc12 [Compound 2a, 4-Ethyl-2-phenoxypyrido[3,2-e][1,2,4]triazolo[1,5-a]pyrimidin-5(4H)-one]
[1]
  inhibition at 100 µg/mL: > 50%
  pIC50: 3.52
other
  melting point: 173 to 175 °C

## CCOc1ccc(Nc2nc3nc(Oc4ccccc4)nn3c3ncccc23)cc1 [Compound 6d, N-(4-Ethoxyphenyl)-2-phenoxypyrido[3,2-e][1,2,4]triazolo[1,5-a]pyrimidin-5-amine]
[1]
  inhibition at 100 µg/mL: > 60%
  pIC50: 3.86
other
  melting point: 154 to 156 °C

## COc1cccc(Cn2c(=O)c3cccnc3n3nc(Oc4ccccc4)nc23)c1 [Compound 2f, 4-(3-Methoxybenzyl)-2-phenoxypyrido[3,2-e][1,2,4]triazolo[1,5-a]pyrimidin-5(4H)-one]
other
  melting point: 189 to 191 °C

## O=c1c2cccnc2n2nc(Oc3ccccc3)nc2n1Cc1ccc([N+](=O)[O-])cc1 [Compound 2h, 4-(4-Nitrobenzyl)-2-phenoxypyrido[3,2-e][1,2,4]triazolo[1,5-a]pyrimidin-5(4H)-one]
other
  melting point: 150 to 152 °C

## Cc1ccc(Nc2nc3nc(Oc4ccccc4)nn3c3ncccc23)cc1 [Compound 6b, 2-Phenoxy-N-(p-tolyl)pyrido[3,2-e][1,2,4]triazolo[1,5-a]pyrimidin-5-amine]
[1]
  inhibition at 100 µg/mL: > 50%
  pIC50: 3.68
other
  melting point: 162 to 164 °C

## ONc1nc2nc(Oc3ccccc3)nn2c2ncccc12 [Compound 6e, N-(2-phenoxypyrido[3,2-e][1,2,4]triazolo[1,5-a]pyrimidin-5-yl)hydroxylamine]
other
  melting point: 249 to 251 °C

## O=c1c2cccnc2n2nc(Oc3ccccc3)nc2n1CCN1CCCCC1 [Compound 2k, 2-Phenoxy-4-(2-(piperidin-1-yl)ethyl)pyrido[3,2-e][1,2,4]triazolo[1,5-a]pyrimidin-5(4H)-one]
other
  melting point: 200 to 202 °C

## O=c1c2cccnc2n2nc(Oc3ccccc3)nc2n1CCN1CCOCC1 [Compound 2j, 4-(2-Morpholinoethyl)-2-phenoxypyrido[3,2-e][1,2,4]triazolo[1,5-a]pyrimidin-5(4H)-one]
other
  melting point: 169 to 171 °C

## S=c1[nH]c2nc(Oc3ccccc3)nn2c2ncccc12 [Compound 3, 2-phenoxypyrido[3,2-e][1,2,4]triazolo[1,5-a]pyrimidine-5(4H)-thione]
[1]
  inhibition at 100 µg/mL: > 60%
  pIC50: 3.78
other
  melting point: 270 to 272 °C

## COc1cccc(CSc2nc3nc(Oc4ccccc4)nn3c3ncccc23)c1 [Compound 4, 5-((3-methoxybenzyl)thio)-2-phenoxypyrido[3,2-e][1,2,4]triazolo[1,5-a]pyrimidine]
other
  melting point: 149 to 151 °C

## COc1ccccc1/C=N/Nc1nc2nc(Oc3ccccc3)nn2c2ncccc12 [Compound 6h, (E)-5-(2-(2-Methoxybenzylidene)hydrazinyl)-2-phenoxypyrido[3,2-e][1,2,4]triazolo[1,5-a]pyrimidine]
[1]
  inhibition at 100 µg/mL: > 50%
  pIC50: 3.98
other
  melting point: 111 to 113 °C

## C=CCn1c(=O)c2cccnc2n2nc(Oc3ccccc3)nc12 [Compound 2b, 4-Allyl-2-phenoxypyrido[3,2-e][1,2,4]triazolo[1,5-a]pyrimidin-5(4H)-one]
other
  melting point: 170 to 172 °C

## O=c1c2cccnc2n2nc(Oc3ccccc3)nc2n1Cc1ccccc1 [Compound 2c, 4-Benzyl-2-phenoxypyrido[3,2-e][1,2,4]triazolo[1,5-a]pyrimidin-5(4H)-one]
other
  melting point: 195 to 197 °C

## Cc1cccc(Cn2c(=O)c3cccnc3n3nc(Oc4ccccc4)nc23)c1 [Compound 2e, 4-(3-Methylbenzyl)-2-phenoxypyrido[3,2-e][1,2,4]triazolo[1,5-a]pyrimidin-5(4H)-one]
other
  melting point: 181 to 183 °C

## c1ccc(Nc2nc3nc(Oc4ccccc4)nn3c3ncccc23)cc1 [Compound 6a, 2-Phenoxy-N-phenylpyrido[3,2-e][1,2,4]triazolo[1,5-a]pyrimidin-5-amine]
[1]
  inhibition at 100 µg/mL: > 50%
  pIC50: 3.81
other
  melting point: 251 to 253 °C

## COc1ccc(O)c(/C=N/Nc2nc3nc(Oc4ccccc4)nn3c3ncccc23)c1 [Compound 6g, (E)-4-Methoxy-2-((2-(2-phenoxypyrido[3,2-e][1,2,4]triazolo[1,5-a]pyrimidin-5-yl)hydrazono)methyl)phenol]
other
  melting point: 220 to 222 °C
